Our source for the relative viability values is the supplement of paper PMC10307832.

Experiment in all cases: relative viability (nuclei count vs DMSO), 5 days (fraction); higher = more cells survive
Compound in the experiment “RU-SKI 43 + Foretinib”: CC[C@@H](C)CNCC(=O)N1CCC2=C([C@@H]1COC3=CC=CC(=C3)C)C=CS2 [RU-SKI 43] + COc1cc2c(Oc3ccc(NC(=O)C4(C(=O)Nc5ccc(F)cc5)CC4)cc3F)ccnc2cc1OCCCN1CCOCC1 [Foretinib] (partner 0.25 µM)
In outline:
(§1)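 Relative viability is defined as nuclei in treated wells over nuclei in vehicle wells. Duplicate plates were run and medians reported. Lung cancer cell lines in 1536-well plates were dosed by pin tool one day after seeding, with one drug or with a fixed anchor-drug dose plus five library-drug doses (not always all listed) in √10 steps, and nuclei were counted after 5 days.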

Compound in the experiment “RU-SKI 43 + Lapatinib”: CC[C@@H](C)CNCC(=O)N1CCC2=C([C@@H]1COC3=CC=CC(=C3)C)C=CS2 [RU-SKI 43] + CS(=O)(=O)CCNCc1ccc(-c2ccc3ncnc(Nc4ccc(OCc5cccc(F)c5)c(Cl)c4)c3c2)o1 [Lapatinib] (partner 2 µM)
In outline: as §1

Compound in the experiment “Irinotecan + Tozasertib”: CCc1c2c(nc3ccc(OC(=O)N4CCC(N5CCCCC5)CC4)cc13)-c1cc3c(c(=O)n1C2)COC(=O)[C@]3(O)CC [Irinotecan] + Cc1cc(Nc2cc(N3CCN(C)CC3)nc(Sc3ccc(NC(=O)C4CC4)cc3)n2)n[nH]1 [Tozasertib] (partner 0.1 µM)
In outline: as §1

Compound in the experiment “Irinotecan + Decitabine”: CCc1c2c(nc3ccc(OC(=O)N4CCC(N5CCCCC5)CC4)cc13)-c1cc3c(c(=O)n1C2)COC(=O)[C@]3(O)CC [Irinotecan] + Nc1ncn([C@H]2C[C@H](O)[C@@H](CO)O2)c(=O)n1 [Decitabine] (partner 2 µM)
In outline: as §1

As for NCI-H3122, the relative viability is 0.941 with RU-SKI 43 + Foretinib (first compound 0.1 µM); 1.05 in the experiment with RU-SKI 43 + Foretinib (first compound 0.3162 µM); 1 with RU-SKI 43 + Foretinib (first compound 1 µM); 0.994 with RU-SKI 43 + Foretinib (first compound 3.162 µM); 0.972 with RU-SKI 43 + Foretinib (first compound 10 µM); 1.06 with RU-SKI 43 + Lapatinib (first compound 0.1 µM). The relative viability with RU-SKI 43 + Lapatinib (first compound 0.3162 µM) turned out to be 1.03; in the experiment with RU-SKI 43 + Lapatinib (first compound 1 µM), 1.03; with RU-SKI 43 + Lapatinib (first compound 3.162 µM), 1.09; in the experiment with RU-SKI 43 + Lapatinib (first compound 10 µM), 0.979; with Irinotecan + Tozasertib (first compound 0.6325 µM), 0.461; in the experiment with Irinotecan + Tozasertib (first compound 2 µM), 0.339. In addition, the relative viability with Irinotecan + Tozasertib (first compound 6.325 µM) was 0.2; with Irinotecan + Tozasertib (first compound 20 µM), 0.0585; with Irinotecan + Decitabine (first compound 0.6325 µM), 0.232; with Irinotecan + Decitabine (first compound 2 µM), 0.163; with Irinotecan + Decitabine (first compound 6.325 µM) it was 0.117; with Irinotecan + Decitabine (first compound 20 µM) it was 0.127.

With PC-3 [JPC-3], the relative viability turned out to be 1.02 with RU-SKI 43 + Foretinib (first compound 0.1 µM); 1.04 with RU-SKI 43 + Foretinib (first compound 0.3162 µM); 1.11 with RU-SKI 43 + Foretinib (first compound 1 µM); 1.06 with RU-SKI 43 + Foretinib (first compound 3.162 µM); 0.976 in the experiment with RU-SKI 43 + Foretinib (first compound 10 µM); 0.461 in the experiment with RU-SKI 43 + Lapatinib (first compound 0.1 µM). In addition, the relative viability in the experiment with RU-SKI 43 + Lapatinib (first compound 0.3162 µM) was determined as 0.344; with RU-SKI 43 + Lapatinib (first compound 1 µM), 0.454; with RU-SKI 43 + Lapatinib (first compound 3.162 µM), 0.47; in the experiment with RU-SKI 43 + Lapatinib (first compound 10 µM), 0.459; with Irinotecan + Tozasertib (first compound 0.6325 µM) it was 0.78; with Irinotecan + Tozasertib (first compound 2 µM) it was 0.81. The relative viability came out at 0.363 with Irinotecan + Tozasertib (first compound 6.325 µM); 0.314 with Irinotecan + Tozasertib (first compound 20 µM); 0.805 with Irinotecan + Decitabine (first compound 0.6325 µM); 0.927 with Irinotecan + Decitabine (first compound 2 µM); 0.655 in the experiment with Irinotecan + Decitabine (first compound 6.325 µM); 0.365 in the experiment with Irinotecan + Decitabine (first compound 20 µM).

With PC-14, the relative viability in the experiment with RU-SKI 43 + Foretinib (first compound 0.1 µM) was found to be 0.872; in the experiment with RU-SKI 43 + Foretinib (first compound 0.3162 µM), 1.15; with RU-SKI 43 + Foretinib (first compound 1 µM), 1.02; with RU-SKI 43 + Foretinib (first compound 3.162 µM) it was 1.07; with RU-SKI 43 + Foretinib (first compound 10 µM), 0.909; in the experiment with RU-SKI 43 + Lapatinib (first compound 0.1 µM) it was 0.362. Also, the relative viability worked out at 0.362 in the experiment with RU-SKI 43 + Lapatinib (first compound 0.3162 µM); 0.414 in the experiment with RU-SKI 43 + Lapatinib (first compound 1 µM); 0.335 with RU-SKI 43 + Lapatinib (first compound 3.162 µM); 0.239 with RU-SKI 43 + Lapatinib (first compound 10 µM); 0.51 with Irinotecan + Tozasertib (first compound 2 µM); 0.19 in the experiment with Irinotecan + Tozasertib (first compound 6.325 µM). Moreover, the relative viability was 0.174 in the experiment with Irinotecan + Tozasertib (first compound 20 µM); 0.184 in the experiment with Irinotecan + Decitabine (first compound 0.6325 µM); 0.182 with Irinotecan + Decitabine (first compound 2 µM); 0.12 in the experiment with Irinotecan + Decitabine (first compound 6.325 µM); 0.111 in the experiment with Irinotecan + Decitabine (first compound 20 µM).

With RERF-LC-KJ, the relative viability in the experiment with RU-SKI 43 + Foretinib (first compound 0.1 µM) amounted to 0.849; in the experiment with RU-SKI 43 + Foretinib (first compound 0.3162 µM), 0.976; with RU-SKI 43 + Foretinib (first compound 1 µM), 0.812; with RU-SKI 43 + Foretinib (first compound 3.162 µM) it was 0.959; with RU-SKI 43 + Foretinib (first compound 10 µM), 0.913; with RU-SKI 43 + Lapatinib (first compound 0.1 µM), 0.872. For the same cell line, the relative viability worked out at 0.892 with RU-SKI 43 + Lapatinib (first compound 0.3162 µM); 0.853 in the experiment with RU-SKI 43 + Lapatinib (first compound 1 µM); 0.959 in the experiment with RU-SKI 43 + Lapatinib (first compound 3.162 µM); 0.825 in the experiment with RU-SKI 43 + Lapatinib (first compound 10 µM); 0.444 with Irinotecan + Tozasertib (first compound 0.6325 µM); 0.438 with Irinotecan + Tozasertib (first compound 2 µM). Besides, the relative viability with Irinotecan + Tozasertib (first compound 6.325 µM) is 0.358; in the experiment with Irinotecan + Tozasertib (first compound 20 µM), 0.179; with Irinotecan + Decitabine (first compound 0.6325 µM), 0.539; with Irinotecan + Decitabine (first compound 2 µM), 0.792; with Irinotecan + Decitabine (first compound 6.325 µM) it was 0.482; in the experiment with Irinotecan + Decitabine (first compound 20 µM) it was 0.154.

SK-LU-1: the relative viability in the experiment with RU-SKI 43 + Foretinib (first compound 0.1 µM) was found to be 0.831; with RU-SKI 43 + Foretinib (first compound 0.3162 µM), 0.979; in the experiment with RU-SKI 43 + Foretinib (first compound 1 µM), 0.826; with RU-SKI 43 + Foretinib (first compound 3.162 µM), 0.836; with RU-SKI 43 + Foretinib (first compound 10 µM), 0.638; with RU-SKI 43 + Lapatinib (first compound 0.1 µM), 0.849. The relative viability stood at 1.02 with RU-SKI 43 + Lapatinib (first compound 0.3162 µM); 0.931 with RU-SKI 43 + Lapatinib (first compound 1 µM); 0.834 with RU-SKI 43 + Lapatinib (first compound 3.162 µM); 0.929 with RU-SKI 43 + Lapatinib (first compound 10 µM); 0.315 in the experiment with Irinotecan + Tozasertib (first compound 0.6325 µM); 0.295 with Irinotecan + Tozasertib (first compound 2 µM). In addition, the relative viability was 0.26 in the experiment with Irinotecan + Tozasertib (first compound 6.325 µM); 0.285 with Irinotecan + Tozasertib (first compound 20 µM); 0.498 with Irinotecan + Decitabine (first compound 0.6325 µM); 0.504 with Irinotecan + Decitabine (first compound 2 µM); 0.423 with Irinotecan + Decitabine (first compound 6.325 µM); 0.25 with Irinotecan + Decitabine (first compound 20 µM).

SK-MES-1: the relative viability is 1.09 with RU-SKI 43 + Foretinib (first compound 0.1 µM); 1.04 in the experiment with RU-SKI 43 + Foretinib (first compound 0.3162 µM); 0.97 with RU-SKI 43 + Foretinib (first compound 1 µM); 1.1 in the experiment with RU-SKI 43 + Foretinib (first compound 3.162 µM); 0.907 in the experiment with RU-SKI 43 + Foretinib (first compound 10 µM); 0.471 in the experiment with RU-SKI 43 + Lapatinib (first compound 0.1 µM). In addition, the relative viability was found to be 0.49 with RU-SKI 43 + Lapatinib (first compound 0.3162 µM); 0.519 with RU-SKI 43 + Lapatinib (first compound 1 µM); 0.51 with RU-SKI 43 + Lapatinib (first compound 3.162 µM); 0.422 with RU-SKI 43 + Lapatinib (first compound 10 µM); 0.659 in the experiment with Irinotecan + Tozasertib (first compound 0.6325 µM); 0.473 in the experiment with Irinotecan + Tozasertib (first compound 2 µM). The relative viability with Irinotecan + Tozasertib (first compound 6.325 µM) was 0.248; in the experiment with Irinotecan + Tozasertib (first compound 20 µM), 0.151; with Irinotecan + Decitabine (first compound 0.6325 µM), 0.398; with Irinotecan + Decitabine (first compound 2 µM), 0.483; with Irinotecan + Decitabine (first compound 6.325 µM), 0.282; with Irinotecan + Decitabine (first compound 20 µM), 0.143.

For the cell line SW 1573, the relative viability with RU-SKI 43 + Foretinib (first compound 0.1 µM) was found to be 0.997; with RU-SKI 43 + Foretinib (first compound 0.3162 µM), 1.21; with RU-SKI 43 + Foretinib (first compound 1 µM), 0.843; with RU-SKI 43 + Foretinib (first compound 3.162 µM), 1.04; in the experiment with RU-SKI 43 + Foretinib (first compound 10 µM) it was 0.887; with RU-SKI 43 + Lapatinib (first compound 0.1 µM), 1.27. Further, the relative viability with RU-SKI 43 + Lapatinib (first compound 0.3162 µM) turned out to be 1.11; with RU-SKI 43 + Lapatinib (first compound 1 µM) it was 1.07; in the experiment with RU-SKI 43 + Lapatinib (first compound 3.162 µM), 1.11; in the experiment with RU-SKI 43 + Lapatinib (first compound 10 µM) it was 1.16; with Irinotecan + Tozasertib (first compound 0.6325 µM), 0.152; with Irinotecan + Tozasertib (first compound 2 µM), 0.311. Further, the relative viability in the experiment with Irinotecan + Tozasertib (first compound 6.325 µM) came to 0.183; in the experiment with Irinotecan + Tozasertib (first compound 20 µM), 0.155; with Irinotecan + Decitabine (first compound 0.6325 µM), 0.445; with Irinotecan + Decitabine (first compound 2 µM) it was 0.511; with Irinotecan + Decitabine (first compound 6.325 µM), 0.173; with Irinotecan + Decitabine (first compound 20 µM) it was 0.0927.
